Legend:
human EP4 receptor [1] = molecular target: T1, human EP4 receptor (Homo sapiens, UniProt P35408); assay: Recombinant human EP4 receptor functional assay (HEK-293-EBNA stable transfectants); format: cell-based; conditions: read-out: Functional Data (EC50 in nM) hEP4
T1 construct: expressed in transfected cells
Description: (§1) Human Recombinant EP4 Receptor: Stable Transfectants.
(§2) Plasmids encoding the human EP4 receptor were prepared by cloning the respective coding sequences into the eukaryotic expression vector pCEP4 (Invitrogen). The pCEP4 vector contains an Epstein Barr virus (EBV) origin of replication, which permits episomal replication in primate cell lines expressing EBV nuclear antigen (EBNA-1). It also contains a hygromycin resistance gene that is used for eukaryotic selection. The cells employed for stable transfection were human embryonic kidney cells (HEK-293) that were transfected with and express the EBNA-1 protein. These HEK-293-EBNA cells (Invitrogen) were grown in medium containing Geneticin (G418) to maintain expression of the EBNA-1 protein. HEK-293 cells were grown in DMEM with 10% fetal bovine serum (FBS), 250 μg ml^−1 G418 (Life Technologies) and 200 μg ml^−1 gentamicin or penicillin/streptomycin.
(§3) For transfection, the cells were grown to 50-60% confluency on 10 cm plates. The plasmid pCEP4 incorporating cDNA inserts for the respective human prostanoid receptor (20 μg) was added to 500 μl of 250 mM CaCl2. HEPES buffered saline×2 (2×HBS, 280 mM NaCl, 20 mM HEPES acid, 1.5 mM Na2 HPO4, pH 7.05-7.12) was then added dropwise to a total of 500 μl, with continuous vortexing at room temperature. After 30 min, 9 ml DMEM were added to the mixture. The DNA/DMEM/calcium phosphate mixture was then added to the cells, which had been previously rinsed with 10 ml PBS. The cells were then incubated for 5 hr at 37° C. in humidified 95% air/5% CO2. The calcium phosphate solution was then removed and the cells were treated with 10% glycerol in DMEM for 2 min. The glycerol solution was then replaced by DMEM with 10% FBS. The cells were incubated overnight and the medium was replaced by DMEM/10% FBS containing 250 μg ml^−1 G418 and penicillin/streptomycin. The following day hygromycin B was added to a final concentration of 200 μg ml^−1.
(§4) Ten days after transfection, hygromycin B resistant clones were individually selected and transferred to a separate well on a 24 well plate. At confluence each clone was transferred to one well of a 6 well plate, and then expanded in a 10 cm dish. Cells were maintained under continuous hygromycin selection until use.
(§5) Certain of the above compounds were tested for activity in the recombinant human EP4 receptor assay described above and the results are reported in Table 1, below.

human EP4 receptor [2] = molecular target: T1, human EP4 receptor; assay: Recombinant human EP4 receptor binding assay (HEK-293-EBNA stable transfectants); conditions: read-out: Binding Data (IC50 in nM) hEP4
Description: as §1, §2, §3, §4, §5

T1 sequence (P35408 whole entry): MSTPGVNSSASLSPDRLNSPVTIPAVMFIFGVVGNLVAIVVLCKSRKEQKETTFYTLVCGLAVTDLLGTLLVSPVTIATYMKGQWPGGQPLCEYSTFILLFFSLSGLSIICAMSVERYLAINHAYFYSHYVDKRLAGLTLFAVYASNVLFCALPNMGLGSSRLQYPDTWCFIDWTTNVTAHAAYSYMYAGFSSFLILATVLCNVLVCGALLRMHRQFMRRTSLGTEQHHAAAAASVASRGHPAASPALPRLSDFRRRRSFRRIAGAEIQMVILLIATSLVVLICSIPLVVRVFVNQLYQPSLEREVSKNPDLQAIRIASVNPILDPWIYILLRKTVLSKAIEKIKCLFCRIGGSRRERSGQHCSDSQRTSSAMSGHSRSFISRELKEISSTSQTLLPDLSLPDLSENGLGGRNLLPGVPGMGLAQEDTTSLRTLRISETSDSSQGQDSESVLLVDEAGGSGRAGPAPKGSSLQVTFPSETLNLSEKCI

SMILES | EC50 (human EP4 receptor [1]) [nM] | IC50 (human EP4 receptor [2]) [nM]
O=C(O)CCC/C=C\C[C@H]1C(=O)C=CC[C@@H]1/C=C/C(O)CCc1sc2ccccc2c1Cl (stereo partly drawn) [Example 10, (Z)-7-{(1R,6R)-6-[(E)-5-(3-Chloro-benzo[b]thiophen-2-yl)-3-hydroxy-pent-1-enyl]-2-oxo-cyclohex-3-enyl}-hept-5-enoic acid] | 456 | 1800
CCCCC[C@H](O)CC[C@H]1[C@H](O)CCC(=O)[C@@H]1CCCCCCC(=O)O [Example 9, 7-[(1R,2R,3R)-3-Hydroxy-2-((S)-3-hydroxy-octyl)-6-oxo-cyclohexyl]-heptanoic acid] | 387 | 600
O=C(O)CCC/C=C\C[C@H]1C(=O)CC[C@@H](O)[C@@H]1/C=C/C(O)CCc1sc2ccccc2c1Cl (stereo partly drawn) [1 low Rf] | 67 | 400
O=C(O)CCCC#CC[C@H]1C(=O)CC[C@@H](O)[C@@H]1/C=C/C(O)Cc1csc2ccccc12 (stereo partly drawn) [Example 8, 7-[(1R,2R,3R)-2-((E)-4-Benzo[b]thiophen-3-yl-3-hydroxy-but-1-enyl)-3-hydroxy-6-oxo-cyclohexyl]-hept-5-ynoic acid] | 362 | 3500
O=C(O)CCCC#CC[C@H]1C(=O)CC[C@@H](O)[C@@H]1/C=C/C(O)CCc1ccccc1 (stereo partly drawn) [Example 4, 7-[(1R,2R,3R)-3-Hydroxy-2-((E)-3-hydroxy-5-phenyl-pent-1-enyl)-6-oxo-cyclohexyl]-hept-5-ynoic acid] | 214 | 1000
O=C(O)CCC/C=C\C[C@H]1C(=O)CC[C@@H](O)[C@@H]1/C=C/C(O)CCc1sc2ccccc2c1Cl (stereo partly drawn) [1 high Rf] | 136 | 200
O=C(O)CCC/C=C\C[C@H]1C(=O)CC[C@@H](O)[C@@H]1/C=C/C(O)Cc1ccccc1 (stereo partly drawn) [Example 2, (Z)-7-[(1R,2R,3R)-3-Hydroxy-2-((E)-3-hydroxy-4-phenyl-but-1-enyl)-6-oxo-cyclohexyl]-hept-5-enoic acid] | 11 | 100
O=C(O)CCC/C=C\C[C@H]1C(=O)CC[C@@H](O)[C@@H]1/C=C/C(O)Cc1csc2ccccc12 (stereo partly drawn) [Example 3, (Z)-7-[(1R,2R,3R)-2-((E)-4-Benzo[b]thiophen-3-yl-3-hydroxy-but-1-enyl)-3-hydroxy-6-oxo-cyclohexyl]-hept-5-enoic acid] | 168 | 1300
O=C(O)CCC/C=C\C[C@@H]1[C@@H](/C=C/C(O)CCc2sc3ccccc3c2Cl)[C@H](O)CC[C@H]1Cl (stereo partly drawn) [Example 6, (Z)-7-{(1R,2R,3R,6R)-6-Chloro-2-[(E)-5-(3-chloro-benzo[b]thiophen-2-yl)-3-hydroxy-pent-1-enyl]-3-hydroxy-cyclohexyl)-hept-5-enoic acid] | 314 | 35
